US10358454B2, “Marinopyrrole derivatives and methods of making and using same” (H. LEE MOFFITT CANCER CENTER AND RESEARCH INSTITUTE, INC., priority 2014, dated 2019)
“Also recorded” adds a separate entry of the source. Where two headings read alike, the source gives them in different places.

How the values were obtained:
[1] = tested on: human breast cancer MDA-MB-468 cells; assay: Western blotting of MDA-MB-468 cells treated with marinopyrrole derivatives (Mcl-1, Bim, caspase 3); assay type: cell-based; conditions: 10 μM for 16 h
Protocol: The cells were then processed for western blotting according to a previously described methods (Balasis M E et al. Clin. Cancer Res. 2011, 17, 2852-2862). […] However, none of the cyclic marinopyrroles were active in intact cells.
(§1) ELISAs were performed using a modified version of a previously described procedure (Doi K et al. J. Biol. Chem. 2012, 287, 10224-10235). Briefly, 40 nM of biotinylated Bim BH3 peptide (Biomatik) in SuperBlock blocking buffer (Pierce) was incubated in high-binding capacity streptavidin-coated plates (Pierce) for 2 h. Compounds were diluted in 120 μl of PBS containing 10 nM of GST-Mcl-1 or GST-Bcl-xL in 1.5 mL tubes for 15 min. Wells were washed with wash buffer (PBS containing 0.05% Tween-20) and then 100 μL of the compound/GST-protein mixture was transferred to the wells. The plates were incubated for 2 h, and then the wells were washed with wash buffer. HRP-conjugated anti-GST antibody (Bethyl Laboratories) was diluted 1:2000 in SuperBlock and 100 μL was transferred to each well. The plate was incubated for 1 h, and then the wells were washed with wash buffer followed by PBS. 100 μL of SureBlue TMB Microwell Peroxidase Substrate (VWR) was added to each well and plates were developed for 5-10 min. 100 μL of 1 N HCl was added to each well to stop the reaction and absorbance was read at 450 nm using a μQuant plate reader (Bio-Tek).

Mcl-1/Bim = Mcl-1/Bim (Homo sapiens, UniProt Q07820); assay: Mcl-1/Bim ELISA (GST-Mcl-1 binding to biotinylated Bim BH3 peptide); conditions: for selectivity profile Mcl-1 vs Bcl-xL in words: from Mcl-1/Bim and Bcl-xL/Bim ELISA; for fold more potent than (±)-1 (1) against Mcl-1/Bim: relative to (±)-1
Chain of Mcl-1/Bim (Q07820 whole entry): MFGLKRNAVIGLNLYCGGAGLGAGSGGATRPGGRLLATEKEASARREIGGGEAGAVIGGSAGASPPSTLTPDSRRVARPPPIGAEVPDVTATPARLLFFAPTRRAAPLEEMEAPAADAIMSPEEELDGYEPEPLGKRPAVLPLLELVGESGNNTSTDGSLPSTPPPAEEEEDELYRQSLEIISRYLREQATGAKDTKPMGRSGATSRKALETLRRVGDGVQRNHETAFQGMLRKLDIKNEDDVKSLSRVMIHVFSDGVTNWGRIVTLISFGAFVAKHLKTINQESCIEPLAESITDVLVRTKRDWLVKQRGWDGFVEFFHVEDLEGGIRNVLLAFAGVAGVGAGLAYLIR
Protocol: as §1
(§2) ELISAs were performed using a similar procedure as previously described (Doi K, et al. J. Biol. Chem. 2012, 287, 10224-10235). Briefly, 40 nM of biotinylated Bim BH3 peptide (Biomatik) in SuperBlock blocking buffer (Pierce) was incubated in high-binding capacity streptavidin-coated plates (Pierce) for 2 h. Compounds were diluted in 120 μl of PBS containing 10 nM of GST-Mcl-1 or GST-Bcl-xL in 1.5 mL tubes for 15 min. Wells were washed with wash buffer (PBS containing 0.05% Tween-20) and then 100 μL of the compound/GST-protein mixture was transferred to the wells. The plates were incubated for 2 h, and then wells were washed with wash buffer. HRP-conjugated anti-GST antibody (Bethyl Laboratories) was diluted 1:2000 in SuperBlock and 100 μL was transferred to each well. The plate was incubated for 1 h, and then wells were washed with wash buffer followed by PBS. 100 μL of SureBlue TMB Microwell Peroxidase Substrate (VWR) was added to each well and plates were developed for 5-10 min. 100 μL of 1 N HCl was added to each well to stop the reaction and absorbance was read at 450 nm using μQuant plate reader (Bio-Tek).

[2] = tested on: cultured human cancer cells; assay: Induction of apoptosis in cultured human cancer cells; assay type: cell-based; conditions: intact cell studies
Bcl-xL/Bim = Bcl-xL/Bim (Homo sapiens, UniProt Q07817); assay: Bcl-xL/Bim ELISA (GST-Bcl-xL binding to biotinylated Bim BH3 peptide); conditions: for fold more potent than (±)-1 (1) against Bcl-xL/Bim: relative to (±)-1
Chain of Bcl-xL/Bim (Q07817 whole entry): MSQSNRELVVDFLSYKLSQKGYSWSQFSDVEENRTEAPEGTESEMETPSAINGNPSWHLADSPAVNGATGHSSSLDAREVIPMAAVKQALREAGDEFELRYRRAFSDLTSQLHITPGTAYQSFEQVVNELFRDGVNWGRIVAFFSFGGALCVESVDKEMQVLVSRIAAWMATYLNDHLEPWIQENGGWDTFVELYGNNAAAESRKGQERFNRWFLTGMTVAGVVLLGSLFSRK
Protocol: as §1, §2

Solubility = conditions: aqueous solubility
[3] = Table 2-B, n ≥ 3, read-out: Mcl-1/Bim IC50 (average ± SEM)
[4] = Table 3-A structure I, Mcl-1 at 10 nM, n ≥ 3, read-out: Mcl-1-Bim IC50 (average ± SEM)
[5] = read-out: IC50 to inhibit the binding of Mcl-1 to Bim
[6] = Table 2-B, n ≥ 3 unless specified, read-out: Bcl-xL/Bim IC50 (average ± SEM)
[7] = Table 3-A structure I, Bcl-xL at 10 nM, n ≥ 3, read-out: Bcl-xL-Bim IC50 (average ± SEM)
[8] = read-out: IC50 to inhibit Bcl-xL/Bim binding
[9] = Table 1, Mcl-1 at 10 nM, n ≥ 3, read-out: Mcl-1-Bim IC50 (average ± SEM)
[10] = Table 1, Bcl-xL at 10 nM, n ≥ 3, read-out: Bcl-xL-Bim IC50 (average ± SEM)
[11] = Table 3-C structure IV, n ≥ 3, read-out: Mcl-1-Bim IC50 (average ± SEM)
[12] = Table 3-C structure IV, n ≥ 3 (IV-1: n = 2), read-out: Bcl-xL-Bim IC50 (average ± SEM)

| Compound | effect on levels of Mcl-1 and Bim and cleavage of caspase 3 [1] | induction of apoptosis [2] | IC50 (Mcl-1/Bim; [3]) | IC50 (Bcl-xL/Bim; [6]) | IC50 (Bcl-xL/Bim; [7]) | IC50 (Bcl-xL/Bim; [8]) | IC50 (Mcl-1/Bim; [9]) | IC50 (Bcl-xL/Bim; [10]) | further results |
| --- | --- | --- | --- | --- | --- | --- | --- | --- | --- |
| O=C(c1ccccc1O)c1[nH]c(Cl)c(Cl)c1-n1c(C(=O)c2ccccc2O)cc(Cl)c1Cl (single isomer, unassigned) [(−)-1, reference compound] | able to decrease Mcl-1 and Bim and to cleave caspas 3 |  |  |  |  |  |  |  |  |
| C=Cc1ccc(C(=O)c2[nH]c(Cl)c(Cl)c2-n2c(C(=O)c3ccc(C=C)cc3O)cc(Cl)c2Cl)c(O)c1 [Compound 1-4, (4,4′,5,5′-Tetrachloro-1′H-1,3′-bipyrrole-2,2′-diyl)bis((2-hydroxy-4-vinylphenyl)methanone)] |  | induced apoptosis |  |  |  |  |  |  | selectivity profile Mcl-1 vs Bcl-xL in words (Mcl-1/Bim): dual Mcl-1 and Bcl-XL antagonists |
| CCc1ccc(C(=O)c2[nH]c(Cl)c(Cl)c2-n2c(C(=O)c3ccc(CC)cc3O)cc(Cl)c2Cl)c(O)c1 [Compound 1-5, (4,4′,5,5′-Tetrachloro-1′H-1,3′-bipyrrole-2,2′-diyl)bis((4-ethyl-2-hydroxyphenyl)methanone)] |  | induced apoptosis | 2.1 ± 0.5 µM | 3.9 ± 1.2 µM | 3.9 ± 1.3 µM |  |  |  | IC50 (Mcl-1/Bim; [4]): 2.1 ± 0.5 µM; selectivity profile Mcl-1 vs Bcl-xL in words (Mcl-1/Bim): dual Mcl-1 and Bcl-XL antagonists; IC50 (Mcl-1/Bim; [5]): 2.1 µM |
| COC(=O)c1ccc(C(=O)c2[nH]c(Cl)c(Cl)c2-n2c(C(=O)c3ccc(C(=O)OC)cc3O)cc(Cl)c2Cl)c(O)c1 [Compound I-17, Dimethyl-4,4′-(4,4′,5,5′-tetrachloro-1′H-[1,3′-bipyrrole]-2,2′-dicarbonyl)bis(3-hydroxybenzoate)] | significant decrease in the levels of Mcl-1 and Bim, and cleavage of caspase 3 |  |  |  | > 100 µM | > 100 µM |  |  | activity against Mcl-1/Bim in words (Mcl-1/Bim): showed activity; IC50 (Mcl-1/Bim; [4]): 16.9 ± 2.3 µM |
| O=C(O)c1ccc(C(=O)c2[nH]c(Cl)c(Cl)c2-n2c(C(=O)c3ccc(C(=O)O)cc3O)cc(Cl)c2Cl)c(O)c1 [Compound I-18, 4,4′-(4,4′,5,5′-Tetrachloro-1′H-[1,3′-bipyrrole]-2,2′-dicarbonyl)bis(3-hydroxybenzoic acid)] | did not decrease Mcl-1 and Bim, and resulted in little caspase 3 cleavage |  |  |  | > 100 µM |  |  |  | IC50 (Mcl-1/Bim; [4]): 61.4 ± 7.6 µM; activity against Mcl-1/Bim in words (Mcl-1/Bim; listed as 7a): lower activity than 1; also recorded: less active; activity against Bcl-xL/Bim in words (Bcl-xL/Bim; listed as 7a): little activity; also recorded: less active; solubility in words (Solubility): improvement in aqueous solubility |
| CCOP(=O)(OCC)c1ccc(C(=O)c2[nH]c(Cl)c(Cl)c2-n2c(C(=O)c3ccc(P(=O)(OCC)OCC)cc3O)cc(Cl)c2Cl)c(O)c1 [Compound I-19, tetraethyl((4,4′,5,5′-tetrachloro-1′H-[1,3′-bipyrrole]-2,2′-dicarbonyl)bis(3-hydroxy-4,1-phenylene))bis(phosphonate)] | little effect on Mcl-1, Bim or caspase 3 |  |  |  | > 100 µM | > 100 µM |  |  | IC50 (Mcl-1/Bim; read-out: Mcl-1-Bim IC50 (average ± SEM)): 7.7 ± 2.2 µM |
| O=C1c2ccc(OS(=O)(=O)C(F)(F)F)cc2Oc2c(Cl)cc(C(=O)c3ccc(OS(=O)(=O)C(F)(F)F)cc3O)n2-c2c1[nH]c(Cl)c2Cl [IV-1, 3-Hydroxy-4-(2,3,7-trichloro-13-oxo-10-(((trifluoromethyl)sulfonyl)oxy)-1,13 dihydrobenzo[g]di-pyrrolo[2,1-b:3′,2′-d][1,3]oxazocine-5-carbonyl)phenyl trifluoromethanesulfonate] |  |  |  |  |  |  | 1.4 ± 0.3 µM | 2.3 ± 1.1 µM | fold more potent than (±)-1 (1) against Mcl-1/Bim (Mcl-1/Bim): six; fold more potent than (±)-1 (1) against Bcl-xL/Bim (Bcl-xL/Bim): seven-fold |
| O=C1c2ccc(O)cc2Oc2c(Cl)cc(C(=O)c3ccc(O)cc3O)n2-c2c1[nH]c(Cl)c2Cl [IV-2, 2,3,7-Trichloro-5-(2,4-dihydroxybenzoyl)-10-hydroxybenzo[g]dipyrrolo[2,1-b:3′,2′-d][1,3]oxazo-cin-13(1H)-one] |  |  | 8 ± 1.6 µM | 9.5 ± 2.2 µM |  |  | 42.5 ± 6 µM | > 100 µM | IC50 (Mcl-1/Bim; [11]): 8 ± 1.6 µM; selectivity profile Mcl-1 vs Bcl-xL in words (Mcl-1/Bim): dual Mcl-1 and BclxL antagonists; IC50 (Bcl-xL/Bim; [12]): 9.5 ± 2.2 µM |
| COC(=O)c1ccc(C(=O)c2cc(Cl)c3n2-c2c([nH]c(Cl)c2Cl)C(=O)c2ccc(C(=O)OC)cc2O3)c(O)c1 [IV-3, Methyl-2,3,7-trichloro-5-(2-hydroxy-4-(methoxycarbonyl)benzoyl)-13-oxo-1,13-dihydrobenzo[g]-dipyrrolo[2,1-b:3′,2′-d][1,3]oxazocine-10-carboxylate] |  |  | 4.1 ± 1.4 µM | 10.1 ± 2.2 µM |  |  | 4.3 ± 1.5 µM | 3.4 ± 0.9 µM | IC50 (Mcl-1/Bim; [11]): 4.1 ± 1.4 µM; fold more potent than (±)-1 (1) against Mcl-1/Bim (Mcl-1/Bim): two-fold; activity against Bcl-xL/Bim in words (Bcl-xL/Bim): slight increase in potency; IC50 (Bcl-xL/Bim; [12]): 10.1 ± 2.2 µM; fold more potent than (±)-1 (1) against Bcl-xL/Bim (Bcl-xL/Bim): seven-fold |
| O=C(O)c1ccc(C(=O)c2cc(Cl)c3n2-c2c([nH]c(Cl)c2Cl)C(=O)c2ccc(C(=O)O)cc2O3)c(O)c1 [IV-4, 5-(4-Carboxy-2-hydroxybenzoyl)-2,3,7-trichloro-13-oxo-1,13-dihydrobenzo[g]dipyrrolo[2,1-b:3′,2′-d][1,3]oxazocine-10-carboxylic acid] |  |  | 3.9 ± 1.1 µM | 18.3 ± 3 µM |  |  | 66.6 ± 2.6 µM | > 100 µM | IC50 (Mcl-1/Bim; [11]): 3.9 ± 1.1 µM; IC50 (Bcl-xL/Bim; [12]): 18.3 ± 3 µM |
| O=C1c2ccc(P(=O)(O)O)cc2Oc2c(Cl)cc(C(=O)c3ccc(P(=O)(O)O)cc3O)n2-c2c1[nH]c(Cl)c2Cl [IV-6, 3-Hydroxy-4-(2,3,7-trichloro-13-oxo-10-phosphoryl-1,13-dihydrobenzo[g]dipyrrolo[2,1-b:3′,2′-d][1,3]oxazocine-5-carbonyl) phosphonic acid] |  |  |  |  |  | > 100 µM | > 100 µM | > 100 µM | IC50 (Mcl-1/Bim; [5]): > 100 µM |
| COc1ccccc1C(=O)c1c(-n2c(C(=O)c3ccccc3OC)cc(Cl)c2Cl)c(Cl)c(Cl)n1C [VI-11] |  | induced apoptosis |  |  |  |  |  |  | selectivity for Mcl-1 over Bcl-xL (Mcl-1/Bim over Bcl-xL/Bim) (Mcl-1/Bim; ratio of ELISA IC50 values): 4.2 fold |
| Cn1c(Cl)c(Cl)c(-n2c(C(=O)c3ccccc3O)cc(Cl)c2Cl)c1C(=O)c1ccccc1O [VI-12] |  | induced apoptosis | > 100 µM |  |  | 7.1 µM |  |  | IC50 (Mcl-1/Bim; Table 3-E structure VI, n ≥ 3, read-out: Mcl-1-Bim IC50 (average ± SEM)): > 100 µM; IC50 (Mcl-1/Bim; [5]): > 100 µM; selectivity for Bcl-xL over Mcl-1 (Bcl-xL/Bim; ratio of ELISA IC50 values): 12.7 fold |
